Reference: patent US8575351B2, “Active metabolite of a thrombin receptor antagonist” (Merck Sharp & Dohme Corp., priority 2009, dated 2013)
Entries after “also recorded” stand apart in the source; their conditions may differ.

Key:
[1] = Rising single dose study: LC-MS profiling of SCH 530348 metabolites in plasma and urine; type: in vivo, human; conditions: for Amount detected in urine (LC-MS): 0-24 hr urine after single 40-mg SCH 530348, humans; for Matrix in which metabolite was detected: single oral 20 and 40 mg SCH 530348, healthy male volunteers, plasma and urine extracts; for Amount detected in plasma (LC-MS): first 6-hr period after single 20- or 40-mg SCH 530348, humans
Excerpt: Phase I clinical studies were designed to evaluate the pharmacokinetics of SCH 530348 in healthy subjects after rising single and multiple doses. The studies included a randomized, evaluator-blind, placebo-controlled, rising single dose (“RSD”) study and a rising multiple dose (“RMD”) study of orally administered SCH 530348 in healthy subjects.
In the single-dose study, 50 healthy males were enrolled into 6 sequential cohorts and randomized to receive in ascending dose manner placebo (n=2-3/group) or oral SCH 530348 (0.25, 1, 5, 10, 20 and 40 mg; n=5-6/group). The objective of this study was to qualitatively assess SCH 530348 metabolites in selected plasma and urine samples following administration of a single oral dose (20 mg or 40 mg, Groups 5 and 6, respectively) of SCH 530348 to healthy male human subjects. Plasma samples from subjects receiving 20 mg and 40 mg of SCH 530348 or placebo were profiled using liquid chromatography-mass spectrometry (“LC-MS”). Only urine samples from 40 mg dose group were profiled. Corresponding plasma and urine LC-MS profiles from the drug- and placebo-dosed subjects were compared to distinguish the drug-derived components from the endogenous material. Next, metabolites were further characterized using liquid chromatography-tandem mass spectrometry (“LC-MS/MS”) methods. Pathways involved in metabolism of SCH 530348 in humans were proposed.
The samples were analyzed using LC-MS System B comprised of TSQ Quantum (Thermo Electron Corp., San Jose, Calif.) operating in a positive electrospray ionization mode, HPLC module Alliance 2695 (Waters, Corp., Milford, Mass.), and flow scintillation analyzer 500TR Series (PerkinElmer Life and Analytical Sciences, Inc., Boston, Mass.).
The clinical phase of the study was conducted at Pharma Bio-Research Group B.V. (Zuidlaren, The Netherlands). Selected plasma and urine samples from Group 5 (20 mg dose and placebo) and Group 6 (40 mg dose and placebo) were shipped and received frozen at Schering-Plough Research Institute (“SPRI”). The samples were stored at −20±10° C. until processing and analysis for metabolites.
Plasma samples from subjects dosed with SCH 530348 or with placebo, in the […], were pooled as summarized in the following table.
To determine extraction efficiency, all available pre-dose plasma from subjects dosed with SCH 530348 (40-mg dose group) was also pooled across subjects. A 2.0 mL aliquot of plasma was spiked with 10 μL of a system suitability mixture (“SSM”) [SCH 530348 and ^14C-SCH 530348 (combined concentration 40 ng/μL, 5000 DPM/μL), SCH 540679 (40 ng/μL), and SCH 609528 (40 ng/μL)] and processed by solvent extraction with protein precipitation. After extracting once with three volumes of acetonitrile, the supernatant was concentrated and reconstituted in dimethylsulfoxide (˜50% of final sample volume) followed by the addition of 1/1 mixture of mobile phases A and B. Following centrifugation, a sample aliquot was analyzed by liquid chromatography-mass spectrometry/flow scintillation analysis (LC-MS/FSA).
A similar procedure was used to process all plasma samples from the drug- or placebo-administered subjects (20- and 40-mg dose groups), and an aliquot of each reconstituted extract was injected for LC-MS analysis. Targeted LC-MS/MS analysis to confirm the presence of metabolites and characterize their structures was also performed.
Urine samples collected during the first 24-hr period post 40-mg dose were pooled across all SCH 530348-dosed subjects (n=5) and across placebo subjects (n=3). Five milliliters of urine (20% of available urine) were pooled from each subject.
To determine the extraction efficiency, 10% of available pre-dose urine from subjects to be dosed with SCH 530348 was also pooled across the subjects. An aliquot (ca. 3.15 mL) was spiked with 15 μL of SSM and extracted by solid-phase extraction. The urine sample was loaded onto a conditioned Sep-Pak Vac tC18 (Waters Corp.) cartridge and washed with water. […]

[2] = molecular target: T1, thrombin receptor (Homo sapiens, UniProt P25116); assay: Calcium transient assay (human coronary artery smooth muscle cells, TK-induced calcium efflux); type: cell-based
T1 construct: human coronary artery smooth muscle cell assay measuring effects on thrombin receptor agonist peptide; endogenous in cells; host or cells: human coronary artery smooth muscle cells
T1 sequence (P25116 22-425): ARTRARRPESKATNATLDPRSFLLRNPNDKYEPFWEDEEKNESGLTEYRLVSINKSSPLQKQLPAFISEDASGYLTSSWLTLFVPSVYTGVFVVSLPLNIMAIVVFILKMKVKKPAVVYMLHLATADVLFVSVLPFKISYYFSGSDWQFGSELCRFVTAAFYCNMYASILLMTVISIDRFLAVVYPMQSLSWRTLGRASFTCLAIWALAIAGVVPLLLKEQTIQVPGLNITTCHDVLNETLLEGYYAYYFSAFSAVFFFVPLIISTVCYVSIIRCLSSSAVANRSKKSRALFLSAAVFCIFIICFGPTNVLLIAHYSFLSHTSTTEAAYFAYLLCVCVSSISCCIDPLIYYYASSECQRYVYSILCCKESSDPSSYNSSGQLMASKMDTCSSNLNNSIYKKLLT
Description: Upon analysis, it was determined that, unlike the other detected metabolites, the concentration of the M20 metabolite in the blood was sufficient for it to be considered a “major metabolite.” That finding triggered an evaluation of its activity. In order to assess activity, SCH 530348 and the M20 metabolite were subjected to a human coronary artery smooth muscle cell assay measuring effects on thrombin receptor agonist peptide TFLLRNPNDK-NH2 (“TK”) on calcium efflux (“the calcium transient assay”).

[3] = Animal study, M20 exposure multiples in monkeys; type: in vivo; conditions: single dose at 0.5 mg/kg
Description: (§1) Exposure multiples exceeded 10 in monkeys after a single dose at 0.5 mg/kg, 25 in mice after a single dose at 75 mg/kg, and 50 in female rabbits on day 7 after multiple daily doses at 20 mg/kg.

[4] = Animal study, M20 exposure multiples in mice; type: in vivo; conditions: single dose at 75 mg/kg
Description: as §1

[5] = Animal study, M20 formation and exposure multiples in rabbits; type: in vivo
Description: as §1

[6] = Blood levels in placebo-controlled safety study of SCH 530348 in non-urgent PCI subjects; type: in vivo, human
Excerpt: In a multi-center, randomized, double-blind, placebo-controlled study to evaluate the safety of SCH 530348 in subjects undergoing non-urgent percutaneous coronary intervention (“PCI”), blood samples were taken on days 15, 31, 60, 75, and 91. A steady state blood level concentration of SCH 530348 was reached by day 31. By day 31, the M20 metabolite was present in the blood at levels of 30-40% of those of the parent (SCH 530348).

Row | Amount detected in urine (LC-MS) [1] | Matrix in which metabolite was detected [1] | Amount detected in plasma (LC-MS) [1] | IC50 ([2]; agonist peptide TFLLRNPNDK-NH2 (TK)) [nM] | Exposure multiples [3] | Exposure multiples [4] | Exposure multiples ([5]; female rabbits, day 7 after multiple daily doses at 20 mg/kg) | Formation of metabolite in animals ([5]; rabbits, after both single and multiple doses) | Structure (SMILES) | Blood level as % of that of the parent (SCH 530348) ([6]; by day 31) | IC50 ([2]; agonist peptide […]-NH2 (TK)) [nM] | Time to steady state blood level concentration ([6]; blood samples on days 15, 31, 60, 75, 91) [days]
1 | minor to trace levels | Urine |  |  |  |  |  |  | C[C@H]1OC(=O)[C@@H]2C[C@@H]3C[C@H](NC(=O)OCC(=O)O)CC[C@H]3[C@H](/C=C/c3ccc(-c4cccc(F)c4)cn3)[C@H]12 [Metabolite M16, [[[[(1R,3aR,4aR,6R,8aR,9S,9aS)-9-[(E)-2-[5-(3-fluorophenyl)-2-pyridinyl]ethenyl]dodecahydro-1-methyl-3-oxonaphtho[2,3-c]furan-6-yl]amino]carbonyl]oxy]acetic acid] |  |  | 
2 | minor to trace levels | Plasma,; also recorded: Urine | Trace amounts |  |  |  |  |  | C[C@H]1OC(=O)[C@@H]2C[C@@H]3C[C@H](N)CC[C@H]3[C@H](/C=C/c3ccc(-c4cccc(F)c4)cn3)[C@H]12 [Metabolite M19, (3R,3aS,4S,4aR,7R,8aR,9aR)-7-amino-4-[(E)-2-[5-(3-fluorophenyl)-2-pyridinyl]ethenyl]-decahydro-3-methylnaphtho[2,3-c]furan-1(3H)-one] |  |  | 
3 |  | Plasma | Trace amounts | 3.4 | exceeded 10 | > 25 | > 50 | formed | C[C@H]1OC(=O)[C@@H]2C[C@@H]3C[C@H](NC(=O)OCCO)CC[C@H]3[C@H](/C=C/c3ccc(-c4cccc(F)c4)cn3)[C@H]12 [Metabolite M20, 2-hydroxyethyl(1R,3aR,4aR,6R,9S,9aS)-9-{(E)-2(5-(3-fluorophenyl)pyridine-2-yl)vinvl}-1-methyl-3-oxododecahydronaphtho[2,3-c]furan-6ylcarbamate] | 30-40% |  | 

Row | Structure (SMILES) | Amount detected in urine (LC-MS) [1] | Matrix in which metabolite was detected [1] | Amount detected in plasma (LC-MS) [1] | IC50 ([2]; agonist peptide TFLLRNPNDK-NH2 (TK)) [nM] | Exposure multiples [3] | Exposure multiples [4] | Exposure multiples ([5]; female rabbits, day 7 after multiple daily doses at 20 mg/kg) | Formation of metabolite in animals ([5]; rabbits, after both single and multiple doses) | Blood level as % of that of the parent (SCH 530348) ([6]; by day 31) | IC50 ([2]; agonist peptide […]-NH2 (TK)) [nM] | Time to steady state blood level concentration ([6]; blood samples on days 15, 31, 60, 75, 91) [days]
4 | CCOC(=O)N[C@@H]1CC[C@@H]2[C@@H](C1)C[C@H]1C(=O)O[C@H](C)[C@H]1[C@H]2/C=C/c1ccc(-c2cccc(F)c2)cn1 [SCH 530348, Ethyl[(1R,3aR,4aR,6R,8aR,9S,9aS)-9-[(E)-2-[5-(3-fluorophenyl)-2-pyridinyl]ethenyl]dodecahydro-1-methyl-3-oxonaphtho[2,3-c]furan-6-yl]carbamate, reference compound] | not detected |  | primary circulating component |  |  |  |  |  |  | 4.5 | ≤ 31
